The text below walks through data of PMC5527305, “Prevention of Ophthalmia Neonatorum Caused by Neisseria gonorrhoeae Using a Fatty Acid-Based Formulation” (mBio, 2017).

The test system of data set [1] is N. gonorrhoeae strain NCCP11945. The data set can be described thus: Growth inhibition screen on GC solid media containing 1 mM candidate. Format: cell-based, Neisseria gonorrhoeae. The following applies: 1 mM candidate in GC agar media; Yes = strain NCCP11945 did not grow. On the procedure: (§1) To find potential candidates, 37 organic acids, esters, and salts were tested in a two-tiered screening process. These candidates were chosen based on the carbon chain lengths of the fatty acids, the presence or absence of saturation, and modifications to represent a diverse selection of organic acid candidates. The first screen aimed to determine the ability of each compound to inhibit the growth of N. gonorrhoeae strain NCCP11945 at 1 mM in GC solid media (Table 1). This strain was chosen due to its relatively recent isolation, its antibiotic resistance profile, and the availability of a complete genome sequence. Those candidates able to inhibit the growth of N. gonorrhoeae strain NCCP11945 were investigated in a second assay. The second assay tested the ability of each compound to cause at least a 4-log reduction in viable bacteria at 1 mM with a 2-min exposure time (Table 1).
(§2) The well-characterized N. gonorrhoeae NCCP11945 strain ([36]) was used in the screening stage. Eight isolates obtained from Public Health England, representing circulating isolates from various European locations, were used in the log reduction assays. All isolates were cultured for 24 h prior to testing by plating on GC solid medium (Oxoid Limited, Hampshire, United Kingdom) with Kellogg supplements and incubation at 37°C and 5% CO2 ([37]).

Data set [2] shares this test system. The data set can be described thus: Log reduction assay in GC broth, 2-min exposure. Format: cell-based, Neisseria gonorrhoeae. Particulars: for Log reduction at 1 mM (calculated log reduction in viable bacteria) / log reduction at 1000 µM: maximum score 6 = all cells killed; for log reduction at 1000 µM: Neisseria gonorrhoeae, NCCP11945, 2 min, 1 mM, read-out: Log reduction at 1 mM (calculated log reduction in viable bacteria). The method, then: as §1
(§3) Log reductions were done as described by Bergsson and coworkers ([18]). Briefly, cells were suspended in GC broth (18 g/liter GC base [Oxoid, Limited] with added defined supplements) to an optical density at 520 nm of 0.3, which is approximately equivalent to 10^7 to 10^8 cells per ml ([38]). […] The contents of the tubes were then mixed at room temperature for 2 min and immediately diluted in a 10-fold dilution series to 10^−4. The dilutions were plated by spreading 10 µl on a quarter of a plate; a 100-µl neat solution was also plated. Plates were then incubated at 37°C for 48 h, with all samples plated in duplicate. […] Additional testing at lower concentrations was also done on the eight clinical isolates of European origin.

The subject of data set [3] is nine gonococcal isolates (strain NCCP11945 and eight isolates from Public Health England). The data set can be described thus: Minimum bactericidal concentration by log reduction against nine gonococcal isolates. The class given is cell-based, Neisseria gonorrhoeae. Particulars: for Killing of all gonococcal cells for all isolates: 1 mM; for MBC: lowest concentration giving mean log reduction above 4 from a 2-min exposure.
Description: The seven candidates were further tested against nine gonococcal isolates, including strain NCCP11945 and eight isolates from Public Health England, to find their minimal bactericidal concentration (MBC). This was defined as the lowest concentration tested to give an average 4-log10 reduction in bacterial count after a 2-min exposure. […] Any candidate that killed all gonococcal cells in the cell suspension was given a log reduction score of six.
as §2, §3

Another data set deals with bovine RBCs. The data set can be described thus: Red blood cell (RBC) lysis assay. Format: cell-based. The following applies: H50 = concentration to lyse 50% of RBCs; MBC from Table 1. On the procedure: Whole bovine blood was obtained from a local slaughter house (ABP), adding 90 ml blood to 10 ml 110 mM trisodium citrate anticoagulant. RBCs were isolated the same day. The RBCs were washed by three repeats of centrifugation (1,500 × g for 10 min) and resuspension in phosphate-buffered saline (PBS) with 10 mM glucose (PBSG). Testing was done following the guidelines of the European Union Reference Laboratory for alternatives to animal testing (EURL-ECVAM) ([22]). The organic acids were solubilized in dimethyl sulfoxide (DMSO) and diluted to a maximum DMSO concentration of 10%. In a 2-ml centrifuge tube, 750 µl of the sample was added to 250 µl RBCs. Controls used in the assay were a complete lysis control (deionized water) and a fragility control (PBSG–10% DMSO). Samples were shaken at room temperature for 1 h and then centrifuged at 14,000 × g for 2 min. An aliquot of 750 µl of the supernatant was taken and its absorbance at 451 nm measured.

Data set [4] concerns gonococcal cells (isolate NCCP 11945). The data set can be described thus: Log reduction in artificial tear fluid with or without calcium chloride. Format: cell-based, Neisseria gonorrhoeae. The method, then: The antigonococcal properties of the seven selected fatty acids were tested in artificial tear fluid, which contained calcium chloride. The addition of 1 mM lauric acid, tridecanoic acid, or sodium dodecanoate gave no reduction in bacterial cell number after exposure, in contrast to the results seen when they were tested in culture medium (Fig. 2). […] This was most likely due to the negative effect of calcium on the aqueous solubility of these candidates.
Artificial tear fluid was made as described by Mirejovsky and others ([39]) with or without calcium chloride. […] As with the previous log reductions, 10^7 gonococcal cells (isolate NCCP 11945) were suspended in GC broth. The cell suspension was centrifuged to remove the culture medium, and the bacteria were resuspended in the tear fluid. This was then added to the concentrated organic acid candidates. The cells were then enumerated again after 2 min of exposure to estimate any reduction in cell number due to the exposure to the organic acid.

The test system of the next data set is bovine cornea. The data set can be described thus: Bovine corneal opacity and permeability (BCOP) test. The method, then:
Bovine eyes were collected from a local slaughter house (ABP, Guildford, Surrey, United Kingdom) and were transported in cold saline solution for testing at the laboratory. Each eye was first visually examined for signs of damage before use. The test was conducted as detailed by Abdelkader and coworkers ([21]). The exposure time of the test substances was 30 s. The selected bactericidal compounds were tested at 1 mM in saline solution, with a corresponding vehicle control (1% ethanol–saline solution) also performed. […] The test area of the cornea was then washed with 10 ml saline solution. Corneal damage to the test area was assessed by fluorescein staining and examination under a cobalt blue filter. Pathological scoring based on opacity, epithelial integrity, and epithelial detachment was done in accordance with previous publications ([19]). Each of the seven lead candidates was tested in triplicate, and each test was performed on a separate day using a different batch of eyeballs. Corneal histology was done as outlined by Abdelkader and coworkers ([21]) by evaluating the damage to the epithelial layer and stroma of the cornea after hematoxylin and eosin staining.

Molecules are shown by their SMILES. In brackets after ≈: the same amount, converted by molar mass. Where two headings read alike, the source gives them in different places. Bounds are passed on as bounds.

For the molecule `CCCCCCCCCCCCCC(=O)[O-].[Na+]` [Sodium myristate], the Growth inhibition entry in data set [1] is “Yes”. Also, in data set [2], the “Log reduction at 1 mM: at least a 4-log reduction in viable bacteria (Yes/No)” value (shortened to “Log reduction at 1 mM … (Yes/No)”) is “No” and the “Log reduction at 1 mM (calculated log reduction in viable bacteria)” value is 0.5 log10.

As for `O=C(O)CCCCCCC(=O)O` [Suberic acid], the Growth inhibition entry in data set [1] is reported as “No”.

With `CCCCCCCCCCCCCCC(=O)O` [Pentadecylic acid], the Growth inhibition result in data set [1] is “Yes”. Also, in data set [2], the “Log reduction at 1 mM … (Yes/No)” value is “No” and the “Log reduction at 1 mM (calculated log reduction in viable bacteria)” value is recorded as 0.5 log10.

`CCCCC/C=C\C/C=C\CCCCCCCC(=O)O` [Linoleic acid]: the Growth inhibition entry in data set [1] was “Yes”. For the same molecule, in data set [2], the “Log reduction at 1 mM … (Yes/No)” value is recorded as “No” and the log reduction at 1000 µM was 1.6.

As for `CCCCCCCC/C=C\CCCCCCCCCCCC(=O)O` [Erucic acid], in data set [1], the Growth inhibition result is “Yes”. In addition, in data set [2], the “Log reduction at 1 mM … (Yes/No)” value is listed as “No” and the log reduction at 1000 µM is 0.

As to `CCCCCCCCCCCCCC(=O)OC(C)C` [Isopropyl myristate], the Growth inhibition entry in data set [1] was “No”.

As for `CCCCCC[C@@H](O)C/C=C\CCCCCCCC(=O)O` [Ricinoleic acid], the Growth inhibition entry in data set [1] is “Yes”. For the same molecule, in data set [2], the “Log reduction at 1 mM … (Yes/No)” value is on record as “No” and the “Log reduction at 1 mM (calculated log reduction in viable bacteria)” value is given as 3.5 log10.

With `CCCCCCCC/C=C\CCCCCCCC(=O)O` [Oleic acid], the Growth inhibition entry in data set [1] is “Yes”. In data set [2], the “Log reduction at 1 mM … (Yes/No)” value is listed as “No” and the log reduction at 1000 µM is 1.

With `O=C(O)CCCCCC(=O)O` [Pimelic acid], the Growth inhibition entry in data set [1] was “No”.

On to `CCCCCCCCCCCCCCCCCC(=O)O` [Stearic acid], for which, in data set [1], the Growth inhibition entry is on record as “No”.

In the case of `O=C(O)CCCCCCCC(=O)O` [Azelaic acid], the Growth inhibition entry in data set [1] was “No”.

`CCCCCCCCCC(=O)O` [Capric acid/decanoic acid]: the Growth inhibition result in data set [1] was “No”.

`C/C=C/C=C/C(=O)O` [Sorbic acid]: the Growth inhibition result in data set [1] is given as “No”.

In the case of `CCCCCCCCCCCCCCCC(=O)OC(C)C` [Isopropyl palmitate], the Growth inhibition result in data set [1] is on record as “No”.

With `CCCCCC/C=C\CCCCCCCC(=O)O` [Palmitoleic acid], in data set [1], the Growth inhibition entry is on record as “Yes”. Besides, in data set [2], the “Log reduction at 1 mM … (Yes/No)” value is “Yes” and the log reduction at 1000 µM was over 6. In data set [3] (2 min), the “Killing of all gonococcal cells for all isolates” value is recorded as “did not”. Further, the MBC in data set [3] (Neisseria gonorrhoeae, 2 min, read-out: MBC) was 500 µM (≈ 127 µg/mL). Also, in the data set with bovine RBCs, the “H50 concentration relative to MBC” value is “lower than their minimum bactericidal concentration”.

For the molecule `CCCCC/C=C\C/C=C\C/C=C\C/C=C\CCCC(=O)O` [Arachidonic acid], the Growth inhibition result in data set [1] is listed as “Yes”.

As for `CCCCCCCCCCC(=O)O` [Undecanoic acid], the Growth inhibition result in data set [1] is “Yes”. In data set [2], the “Log reduction at 1 mM … (Yes/No)” value is “No” and the log reduction at 1000 µM was 0.2.

`CCCCCCCC/C=C/CCCCCCCC(=O)O` [Elaidic acid]: the Growth inhibition result in data set [1] is given as “Yes”. Further, in data set [2], the “Log reduction at 1 mM … (Yes/No)” value is given as “No” and the log reduction at 1000 µM is 0.5.

Take `O=C(O)CCC(=O)O` [Succinic acid]: in data set [1], the Growth inhibition result is listed as “No”.

`CCCCCCCCCCCC(=O)[O-].[Na+]` [Sodium dodecanoate]: the Growth inhibition result in data set [1] was “Yes”. For the same molecule, in data set [2], the “Log reduction at 1 mM … (Yes/No)” value is “Yes” and the “Log reduction at 1 mM (calculated log reduction in viable bacteria)” value is given as over 6 log10. Also, in data set [3] (2 min), the “Killing of all gonococcal cells for all isolates” value is reported as “killed all gonococcal cells for all isolates”. In data set [3], the MBC stood at 750 µM. In data set [4] (1 mM candidate, 2 min, with calcium), the “Reduction in bacterial cell number in artificial tear fluid containing calcium chloride” value is on record as “no reduction”. Also, the “Antigonococcal properties in tear fluid made without calcium chloride” value in data set [4] (1 mM candidate, 2 min, without calcium) is given as “completely restored”. Also, the “Effect of calcium in artificial tear fluid on antimicrobial effect” value in data set [4] (calcium 1 mM, Fig. 2) was “inactivated”. Moreover, the “Mean cumulative BCOP score” value with bovine cornea (1 mM in saline solution, 30 s exposure, triplicate) was “lower than 0.5”. Also, in the data set on bovine cornea (1 mM, around rubber application ring), the “Fluorescein staining of cornea” value was “any sign of fluorescein staining”. In the data set with bovine cornea (candidates 1 mM in saline, controls 0.5 M NaOH, 100% acetone, 30 s exposure), the BCOP irritancy classification entry is given as “nonirritants”.

As for `CCCCCCCC(=O)O` [Caprylic/octanoic acid], the Growth inhibition result in data set [1] is given as “No”.

In the case of `CCCCCCCC(=O)OCC(O)CO` (racemic) [1-octanoyl-rac-glycerol], in data set [1], the Growth inhibition entry is “Yes”. In addition, in data set [2], the “Log reduction at 1 mM … (Yes/No)” value is “No” and the log reduction at 1000 µM was 0.

With `CCCCCCCCCCCCCC(=O)O` [Myristic acid], in data set [1], the Growth inhibition result is “Yes”. Moreover, in data set [2], the “Log reduction at 1 mM … (Yes/No)” value is reported as “No” and the log reduction at 1000 µM is 1.5.

`O=C(O)CCCCCCCCC(=O)O` [Sebacic acid]: the Growth inhibition entry in data set [1] was “No”.

Regarding `O=C(O)CCCCC(=O)O` [Adipic acid], the Growth inhibition result in data set [1] is “No”.

On to `CCCCCCCCCCCCCC(=O)OCC(O)CO` (centres unmarked) [Monomyristin], for which, in data set [1], the Growth inhibition result was “Yes”. In data set [2], the “Log reduction at 1 mM … (Yes/No)” value is “No” and the “Log reduction at 1 mM (calculated log reduction in viable bacteria)” value is 0.6 log10.

For the molecule `CCCCCCCCCCCCCCCC(=O)O` [Palmitic acid], the Growth inhibition entry in data set [1] was “No”.

Turning to `CCCCCCCCCCCCCCCCC(=O)O` [Heptadecylic acid], in data set [1], the Growth inhibition result is listed as “No”.
